≈ marks a conversion by molar mass, not a printed value.
SMILES	logP	other results
Clc1cccc(C(Cl)(Cl)Cl)n1	–	solubility (25 °C): 233 µM (≈ 53.7 µg/mL)
CCNc1nc(Cl)nc(NC(C)(C)C)n1	3.21	solubility (pH 7.0, 20 °C): 39.6 µM (≈ 9.09 µg/mL)
CC1(C)CCC(=Cc2ccc(Cl)cc2)C1(O)Cn1cncn1 (stereo not drawn)	3.29	–
CC(C)C1(C)N=C(c2nc3ccccc3cc2C(=O)O)NC1=O (stereo not drawn)	–	solubility (25 °C): 289 µM (≈ 90 µg/mL)
CN=C(O)/C(=N/OC)c1ccccc1Oc1ccccc1	2.32	–
CNC(=O)CSP(=O)(OC)OC	-0.74	–
CC1(C)[C@H](/C=C(\Cl)C(F)(F)F)[C@@H]1C(=O)O[C@H](C#N)c1cccc(Oc2ccccc2)c1	6.8	–
Cc1c(F)c(F)c(COC(=O)C2C(/C=C(\Cl)C(F)(F)F)C2(C)C)c(F)c1F (stereo not drawn)	6.5	–
COCC(=O)N(c1c(C)cccc1C)C(C)C(=O)OC (stereo not drawn)	–	solubility (24 °C): 36400 µM (≈ 10200 µg/mL)
O=C1CC(C(=O)O)CC(=O)C1=C(O)C1CC1 (stereo not drawn)	–	logD (pH 2.0): 1.8; solubility (pH 5.0, 20 °C): 5800 µM (≈ 1300 µg/mL)
CCOCCOC(=O)C(C)Oc1ccc(Oc2ncc(C(F)(F)F)cc2Cl)cc1 (stereo not drawn)	–	solubility (20 °C): 1.34 µM (≈ 0.58 µg/mL)
CC1=CC[C@@H]2C[C@@H](C[C@]3(CC[C@H](C)[C@@H](C)O3)O2)OC(=O)[C@@H]2C=C(C)[C@@H](O)[C@H]3OCC(=CC=C[C@H](C)C1)[C@]32O	5.3	solubility (20 °C): 1.66 µM (≈ 0.88 µg/mL)
CC(C)(COCc1cccc(Oc2ccccc2)c1)c1ccc(OC(F)(F)Br)cc1	–	solubility (25 °C): 0.000105 µM (≈ 5e-05 µg/mL)
COc1ccc(-c2ccccc2)cc1NNC(=O)OC(C)C	–	solubility (20 °C): 12.5 µM (≈ 3.76 µg/mL)
O=C(NC(=O)c1ccccc1Cl)Nc1ccc(OC(F)(F)F)cc1	4.91	solubility (20 °C): 0.0697 µM (≈ 0.025 µg/mL)
CCC(C)Nc1c([N+](=O)[O-])cc(C(C)(C)C)cc1[N+](=O)[O-] (stereo not drawn)	4.93	–
CCC1(CC2(c3cccc(Cl)c3)CO2)C(=O)c2ccccc2C1=O (stereo not drawn)	–	solubility (25 °C): 41.1 µM (≈ 14 µg/mL)
COc1cc(OC)nc(N=C(O)NS(=O)(=O)c2c(Cl)nc3ccccn23)n1	–	solubility (pH 5.1, 25 °C): 16.3 µM (≈ 6.72 µg/mL)
O=[n+]1[n-]c(-n2ccnc2)nc2ccc(Cl)cc21	2.04	solubility (20 °C): 137 µM (≈ 34 µg/mL)
COc1cc(OC)nc(NC(=O)NS(=O)(=O)c2ncccc2C(=O)N(C)C)n1	0.01	–
CON=C(Cc1cccnc1)c1ccc(Cl)cc1Cl	3.7	–

SMILES	logP	other results
CC1(C)OC[C@@H]2O[C@@]3(C(=O)O)OC(C)(C)O[C@H]3[C@@H]2O1	1.35	–
CNC(=O)ON=C(C)C(C)SC (stereo not drawn)	1.1	solubility (20 °C): 184000 µM (≈ 35000 µg/mL)
CCCCOCC(C)OC(=O)COc1nc(F)c(Cl)c(N)c1Cl (stereo not drawn)	4.17	–
COc1cccc(C(=O)NN(C(=O)c2cc(C)cc(C)c2)C(C)(C)C)c1C	3.7	solubility: < 2.71 µM
COc1cc(OC)nc(Oc2cccc(Oc3nc(OC)cc(OC)n3)c2C(=O)[O-])n1.[Na+]	-1.03	–
COC(=O)CSc1cc(/N=c2\sc(=O)n3n2CCCC3)c(F)cc1Cl	3.77	–
CCc1cccc(C)c1N(COC(C)C)C(=O)CCl	3.5	–
C#CCOc1cc(-n2nc(C(C)(C)C)oc2=O)c(Cl)cc1Cl	3.95	solubility (20 °C): 1.08 µM (≈ 0.37 µg/mL)
Cc1ccc(NC(O)=NC(C)(C)c2ccccc2)cc1	–	solubility (20 °C): 4.47 µM (≈ 1.2 µg/mL)
CCOP(=O)(SC(C)CC)SC(C)CC (stereo not drawn)	3.9	solubility (25 °C): 917 µM (≈ 248 µg/mL)
CC(C)OC(=O)C(O)(c1ccc(Br)cc1)c1ccc(Br)cc1	5.4	–
CCCCN(CC)c1c([N+](=O)[O-])cc(C(F)(F)F)cc1[N+](=O)[O-]	5.29	solubility (25 °C): 0.298 µM (≈ 0.1 µg/mL)
CCN(Cc1c(F)cccc1Cl)c1c([N+](=O)[O-])cc(C(F)(F)F)cc1[N+](=O)[O-]	5.45	–
CCc1nn(C)c(C(=O)NCc2ccc(C(C)(C)C)cc2)c1Cl	4.61	–
CC(Oc1ccc(Oc2ncc(C(F)(F)F)cc2Cl)cc1)C(=O)O (stereo not drawn)	–	solubility (pH 2.6, 25 °C): 120 µM (≈ 43.4 µg/mL)
CC(C)NC(=O)N1CC(=O)N(c2cc(Cl)cc(Cl)c2)C1=O	3	–
Clc1ccc(CSC(Cn2cncn2)=Nc2ccc(Cl)cc2Cl)cc1	4.94	–
O=S(=O)(c1ccc(Cl)cc1)c1cc(Cl)c(Cl)cc1Cl	4.61	solubility (20 °C): 0.219 µM (≈ 0.078 µg/mL)
O=C(Nc1ccc(Cl)c(Cl)c1)Nc1cc(Cl)ccc1Oc1ccc(Cl)cc1S(=O)(=O)[O-].[Na+]	1.89	–
C[Si](Cn1cncn1)(c1ccc(F)cc1)c1ccc(F)cc1	–	solubility (pH 7.2, 20 °C): 171 µM (≈ 54 µg/mL)
CN(C)NC(=O)CCC(=O)O	-1.5	–
